These results are taken from patent US20260315452A1, “PROTEASE INHIBITORS AND USES THEREOF” (priority 2023, published 2026).

In one series the test system is SARS-CoV-2. Briefly: Anti-SARS-CoV-2 activity in A549 cells expressing the human ACE2 receptor (inhibition of SARS-CoV-2 replication). Type of series: cell-based. Particulars: for antiviral potency in A549 cells in comparison with compound Ref-2: versus Ref-2 (FIG. 7); for EC50: Severe acute respiratory syndrome coronavirus 2, A549-ACE2, 24 h, read-out: Antiviral Activity (EC50).

The target of series [1] is T1, SARS-CoV-2 3CLpro (Severe acute respiratory syndrome coronavirus 2, UniProt P0DTD1). Type of series: binding. The conditions noted are these: ITC, 25° C., pH 7.4; versus Ref-2 (compound P2).
The target in series [2] is T1, SARS-CoV-2 3CLpro. Briefly: biochemical. The conditions noted are these: inhibition of SARS-CoV-2 3CLpro; 15 nM 3CLpro, 25 μM fluorogenic substrate, 37° C.; read-out: Inhibitory Activity (IC50).
A further series has as its system Omicron SARS-CoV-2. The conditions noted are these: FIG. 8, with Ref-2.
Series [3] can be described thus: Plasma protein binding (PPB) by equilibrium dialysis. Particulars: human and mouse plasma, 4 hours, 37° C., versus Ref-2. Type of series: in vitro ADME. As for the experimental part: The binding of compounds Ref-2, 86, 97, 98 and 170 to human and mouse plasma were measured using equilibrium dialysis. A loading matrix was prepared by diluting of a 400 μM stock of each of the compounds in DMSO by the plasma matrix. To prepare the time zero (To) samples to be used for recovery determination, 50 μL of the loading matrix were transferred in triplicate to the sample collection plate, immediately matched with opposite blank buffer to obtain a final volume of 100 μL of 1:1 matrix/dialysis buffer (v/v) in each well, followed by the addition of 500 μL of stop solution (200 ng/mL of tolbutamide, 200 ng/mL of labetalol, and 50 ng/mL of metformin in acetonitrile) and then stored at 2-8° C. pending further processes along with other post-dialysis samples. To load the dialysis device, 150 μL of the loading matrix and 150 μL of the dialysis buffer were transferred to the donor side and the receiver side of each well, respectively. The dialysis plate was placed in a humidified incubator at 37° C. with 5% CO2 on a shaking platform that rotated slowly (about 100 rpm) for 4 hours, then 50 μL of samples were taken from both the buffer side and the matrix side, and transferred into new 96-well plates. Each sample was mixed with an equal volume of opposite blank buffer (or matrix) to reach a final volume of 100 μL, followed by the addition of 500 µL of stop solution. The mixture was vortexed and centrifuged at 4000 rpm for about 20 minutes, then […] of the supernatant of each sample was removed for LC-MS/MS analysis. The single blank samples were prepared by transferring 50 μL of blank matrix to a 96 well plate and adding 50 μL of blank PBS buffer to each well. The blank plasma must match the species of plasma used in the plasma side of the well. Then the matrix-matched samples were further processed by adding 500 μL of stop solution, following the same sample processing method as the dialysis samples. The % Unbound, % Bound and % Recovery were calculated using the following equations: […]
in which F is the analyte concentration or peak area ratio of analyte/internal standard on the buffer (receiver) side of the membrane, T is the analyte concentration or peak area ratio of analyte/internal standard on the matrix (donor) side of the membrane, and T0 is the analyte concentration or the peak area ratio of analyte/internal standard in the loading matrix sample at time zero.
On the technique in general: In equilibrium dialysis free small molecules cross a membrane that holds back macromolecules.

Series [4] has as its target T1, SARS-CoV-2 3CLpro. Briefly: Co-crystal structure with SARS-CoV-2 3CLpro. Type of series: binding. Particulars: co-crystal with SARS-CoV-2 3CLpro.
In series [5] the test system is CYP1A2, CYP2C9, CYP2C19, CYP2D6 and CYP3A4. Briefly: CYP inhibition evaluation in human liver microsomes. The conditions noted are these: CYP1A2, 2C9, 2C19, 2D6, 3A4, up to 50 μM. The class given is in vitro ADME. The method, then: 20 μL of the substrate solutions of CYP1A2, CYP2C9, CYP2C19, CYP2D6 and CYP3A4 were each mixed with […] of the test compounds (final concentrations: 50 μM, 15 μM, 5 μM, 1.5 μM, 0.5 μM, 0.15 μM, 0.05 μM, 0 μM), followed by the addition of 158 μL of the HLM (Human liver microsome) working solution. Each of the mixtures was incubated at 37° C. for 10 minutes, and then mixed with 20 μL of NADPH cofactor, followed by incubation at 37° C. for additional 10 minutes. The reactions were terminated by adding 400 μL cold stop solution (200 ng/mL Tolbutamide and Labetalol in ACN). The samples are centrifuged at 4000 rpm for 20 minutes to precipitate protein. Next, 200 μL of the supernatant of each sample was transferred to 100 μL HPLC water and shaken for 10 minutes, and then analyzed by LC/MS/MS.
On the technique in general: Microsomes from liver hold many membrane-bound enzymes, among them those of drug oxidation.

Each structure is given as a SMILES string.

For the compound `O=C(NC1CC(F)(F)C1)c1cc(Br)cc([N+](=O)[O-])c1N[C@H]1CN(C(=O)c2cncc3ccccc23)CC12CC2` [Compound 30, (R)-5-bromo-N-(3,3-difluorocyclobutyl)-2-((5-(isoquinoline-4-carbonyl)-5-azaspiro[2.4]heptan-7-yl)amino)-3-nitrobenzamide], in the series on SARS-CoV-2, the “antiviral potency in A549 cells in comparison with compound Ref-2” value is reported as “better antiviral potency” and the EC50 (in general, the concentration needed to bring the measured effect to its halfway point) is less than 100 nM. Moreover, on SARS-CoV-2 3CLpro [1], the “binding affinity (dissociation constant, Kd) in comparison with compound Ref-2” value is recorded as “higher binding affinity”. Further, at SARS-CoV-2 3CLpro [2], the IC50 (in general, the midpoint of a concentration-inhibition curve) is less than 100 nM.

In the case of `CNC(=O)c1cc(Cl)cc([N+](=O)[O-])c1N[C@H]1CN(C(=O)c2cncc3cccnc23)CCC1(F)F` [Compound 98, (S)-5-chloro-2-((4,4-difluoro-1-(1,6-naphthyridine-8-carbonyl)piperidin-3-yl)amino)-N-methyl-3-nitrobenzamide], in the series with SARS-CoV-2, the EC50 is less than 100 nM. Also, the “activity against Omicron SARS-CoV-2 in Caco-2 cells” value in the series with Omicron SARS-CoV-2 was “stronger activity against Omicron SARS-CoV-2”. In series [3], the “free PPB ratio in comparison with compound Ref-2” value is reported as “better free PPB ratios”. Moreover, on SARS-CoV-2 3CLpro [4], the “binding site/mode in crystal structure” value is “bind to 3CLpro similar to that of Compound 19”. In addition, the “effect on different CYP isoforms” value in series [5] is “little effect on different CYP isoforms”. In addition, the IC50 at SARS-CoV-2 3CLpro [2] is less than 100 nM.

In the case of `CNC(=O)c1cc(Br)cc([N+](=O)[O-])c1N[C@H]1CN(C(=O)c2cncc3ccccc23)CCC1(F)F` [Compound 19, (S)-5-bromo-2-((4,4-difluoro-1-(isoquinoline-4-carbonyl)piperidin-3-yl)amino)-N-methyl-3-nitrobenzamide], in the series with SARS-CoV-2, the “antiviral potency in A549 cells in comparison with compound Ref-2” value is reported as “better antiviral potency” and the EC50 was less than 100 nM. The “binding affinity (dissociation constant, Kd) in comparison with compound Ref-2” value at SARS-CoV-2 3CLpro [1] was “higher binding affinity”. In addition, on SARS-CoV-2 3CLpro [4], the “binding site/mode in crystal structure” value is reported as “bound into the catalytic pocket of 3CLpro”. Further, the IC50 at SARS-CoV-2 3CLpro [2] is less than 100 nM.
